Data set [1] has as its system Long-Evans rats. The data set can be described thus: In vivo outflow facility measurement. The note with it: six days after second injection of 0.1% BAK; infusion 0.1, 0.2, 0.3 μL/min; vs vehicle-injected control eyes. Set-up: species or system rat. As to the method:
Six days after the second injection of BAK, trabecular outflow facility was measured in vivo under general anaesthesia. The eyes were anteriorly canulated with a 30-G needle connected by tubing to a 1 mL syringe filled with PBS and loaded into a microdialysis infusion pump. Intraocular pressure was measured after a 10-min stabilization period for three different infusion flow rates (0.1, 0.2, and 0.3 μL/min). Aqueous humor outflow facility was calculated as the reciprocal of the slope of the respective ocular pressure/flow rate curves. Outflow facility (OF) was decreased in BAK-injected eyes as compared to vehicle-injected control eyes.
Six days after the second injection of BAK, trabecular outflow facility was measured in vivo under general anaesthesia (intraperitoneal injection of ketamine 75 mg/kg and xylazine 10 mg/kg). Briefly, the eyes were anteriorly canulated with a 30-G needle connected by tubing to a 1 mL syringe filled with PBS and loaded into a microdialysis infusion pump (World Precision instruments). Intraocular pressure was measured after a 10-min stabilization period for three different infusion flow rates (0.1, 0.2, and 0.3 μL/min). Aqueous humor outflow facility (μL/min/mmHg) was calculated as the reciprocal of the slope of the respective ocular pressure/flow rate curves.

Data set [2] in a line: Dose-dependent effects of subconjunctival injections of BAK on intraocular pressure. It counts as in vivo. As to conditions: 3 subconjunctival injections (0.15 mL, each 48 h). The protocol:
A series of 3 subconjunctival injections with 0.01% BAK (n=3), 0.05% BAK (n=3), 0.1%, BAK (n=6) or the vehicle (n=4) was performed (0.15 mL, each 48 h during 6 days) in the right eye of animals. Intraocular pressure was measured using a handled tonometer every two days from D0 to D28. Intraocular pressure is expressed as the difference between the treated eye (right) and the left control eye.

Data set [3] relates to Long-Evans rats. The data set can be described thus: Intra-ocular pressure monitoring after two subconjunctival injections of 0.1% BAK. It counts as in vivo, rat. As to the method: Six male 8-week-old Long-Evans rats weighing 300-350 g were used. At D0, first subconjunctival injection of 0.1% BAK (100 μL) was performed in the right eye whereas the left eye received 0.9% NaCl vehicle only as control. A second injection was performed seven days after following the same protocol. Animals were daily monitored for intra-ocular pressure using a handheld tonometer, without sedation.
Six male 8-week-old Long-Evans rats weighing 300-350 g were used. Animals were kept in pathogen-free conditions with food and water available ad libitum and housed in a 12-h light/12-h dark cycle. Ocular integrity was checked using the slit lamp biomicroscope. At D0, first subconjunctival injection of 0.1% BAK (100 μL) was performed in the right eye whereas the left eye received PBS only as control. A second injection was performed seven days after following the same protocol. Animals were daily monitored for intra-ocular pressure using a handheld tonometer (TonoLab, Medtronics, Jacksonville, Fla., USA) without sedation. All experiments were conducted in accordance with the Association for Research in Vision and Ophthalmology for the Use of Animals in Ophthalmic research.

For the next data set, the system named is trabecular cells. The experiment in a line: Ex vivo trabecular cell apoptosis (TUNEL labelling). It counts as in vivo, rat. As to conditions: BAK-injected eyes vs controls, end of experiments; P<0.01. As to the method: At the end of the experiments, animals were euthanized and the eyes were immediately conditioned for TUNEL labelling. Eyes were fixed in 4% paraformaldehyde, embedded in an optimal cutting-temperature compound (OCT, Tissue-Tek, Miles Inc, Bayer Diagnostic, Puteaux, France) and cut into 15-μm cryosections. A terminal deoxynucleotidyl transferase-mediated dUTP nick-end labelling (TUNEL) assay (Roche Diagnostics, Meylan, France) was performed to detect apoptosis in rat ocular tissues following the manufacturer's instructions. Specimens were mounted in aqueous mounting medium with DAPI to be further analyzed using light epifluorescence microscopy.

The test system of the next data set is ocular surface. The data set can be described thus: In vivo assessment of BAK injection toxicity to the ocular surface (in vivo confocal microscopy, IVCM). As to the method:
In vivo confocal microscopy (IVCM) using the Heidelberg Retina Tomograph II/Rostock Cornea Module (Heidelberg Engineering GmbH, Heidelberg, Germany) laser-scanning was carried out to assess putative damage to the ocular surface. Images size was 400 per 400 hundred pixels with a lateral resolution of 1 micrometer and an axial resolution of 2 micrometers. […] IVCM scores were used to evaluate ocular surface toxicity profiles in the 4 groups (vehicle, 0.01% BAK, 0.05% BAK, and 0.1% BAK) in different histological regions (superficial epithelium, basal epithelium, anterior stroma, limb and conjunctival stroma), 30 days after the first BAK administration (see Table 1). […] [table]

Entries after “also recorded” stand apart in the source; their conditions may differ.

With benzalkonium chloride [BAK], in the data set with Long-Evans rats [1], the “trabecular (aqueous humor) outflow facility” value was “decreased; also recorded: low trabecular outflow facility”. Also, the “intraocular pressure, difference between treated eye and left control eye” value in data set [2] (0.05% BAK, D9) is “significant ocular hypertension”; in data set [2] (0.1% BAK, D7, D11 and D14), “significant increase”; in data set [2] (other times or BAK concentrations (0.01% BAK), D0 to D28) it was “did not show significant changes”. Besides, the “intra-ocular pressure after second injection” value in the data set on Long-Evans rats [3] (0.1% BAK (100 μL) subconjunctival at D0 and seven days after, vs control eyes, D9 and D14, P<0.01) is “significantly rose and remained significantly elevated; also recorded: Significant difference; also recorded: became significant”. The “intra-ocular pressure after first injection” value in the data set with Long-Evans rats [3] (0.1% BAK (100 μL) subconjunctival, right eye, vs vehicle control eye, D7) is recorded as “no effect; also recorded: slight increase”. The “trabecular apoptotic cells (TUNEL labelling)” value in the data set on trabecular cells is recorded as “Significant difference; also recorded: increased”. Further, the “IVCM subscore: limbus and conjunctiva, animals with peripheral vasodilatation” value in the data set on ocular surface (0.01% BAK (n=3)) was “one”; in the data set on ocular surface (0.1% BAK (n=6)) it was “three”. In addition, in the data set with ocular surface (4 groups (vehicle, 0.01%, 0.05%, 0.1% BAK)), the “IVCM subscore: basal epithelium” value is on record as “unchanged”. Further, the “IVCM subscore: anterior stroma” value with ocular surface (BAK 0.1% group) is “trend for hyperplasia of the subbasal nerve plexi”. The “IVCM: posterior stroma and endothelium toxicity” value in the data set with ocular surface (all BAK concentrations) was “no toxicity was found”. Besides, the “IVCM subscore: superficial epithelium” value with ocular surface (all the animals) is reported as “slight epithelial swelling”. In addition, the “overall IVCM score (ocular surface toxicity)” value in the data set with ocular surface (vehicle, 0.01%, 0.05% and 0.1% BAK groups, 30 days after first BAK administration, Kruskal Wallis test, p>0.05) was “No significant difference; also recorded: No statistical difference”. Also, the “anterior eye abnormality / ocular surface pathological changes” value with ocular surface (whatever the BAK concentration) is “Neither anterior eye abnormality nor ocular surface pathological changes were found”.

Values taken from patent US20160346406A1, “METHOD FOR INCREASING THE INTRAOCULAR PRESSURE IN AN ANIMAL” (INSTITUT NATIONAL DE LA SANTE ET DE LA RECHERCHE MEDICALE …, priority 2011, published 2016).
